Columns and labels:
Male rats (Long Evans) [1] = experiment: Cardiovascular variables in conscious, freely moving instrumented rats after intravenous injection; format: in vivo, rat; conditions: vs vehicle; for effect on the heart rate / effect on the mean arterial blood pressure: 10 mg per kg body weight i.v. in acetonitrile/dextrose
Protocol: (§1) Male rats (Long Evans) of body mass in the range of from 350 to 450 g were used in the experiments.
(§2) The rats were instrumented with probes to monitor blood flow in renal, mesenteric and hindquarters vascular beds and with catheters to measure blood pressure and heart rate and to administer substances intravenously.
(§3) Measurements of the cardiovascular variables were made in the test rats which were conscious and able to move freely during the duration of the test procedure (10 minutes). The raw data were sampled (every 2 ms), averages were calculated (per cardiac cycle) and the data was stored to diskette (every 5 s). The stored data was analysed off line.
The following substances were administered by intravenous injection to the test rats.
1) vehicle only (100 μl of 50:50 acetonitrile:dextrose)
2) 10 mg per kg body weight of N-(3-oxododecanoyl)homoserine lactone (OdDHL; Formula I; n=2, Y=X=O, R=3-oxododecanoyl). The OdDHL was dissolved in acetonitrile/dextrose (50 μl:50 μl) 100 μl.
3) vehicle only (100 μl of 50:50 acetonitrile:dextrose)
4) 10 mg per kg body weight of N-(3-oxoundecanoyl)homoserine lactone (OuDHL; Formula I; n=2, Y=X=O, R=3-oxoundecanoyl).
The OuDHL was dissolved in acetonitrile/dextrose (50 μl:50 μl) 100 μl.

Male rats (Long Evans) [2] = experiment: Cardiovascular variables in conscious rats after cardiac autonomic blockade with atenolol + atropine; format: in vivo, rat; conditions: 10 mg per kg i.v. after earlier administration of atenolol and atropine
Protocol: as §1, §2, §3
The following substances were administered intravenously to the test rats.
1) As in 2) in Experiment I above (∘)
2) Atenolol +atropine then as in 2) in Experiment I above (●).

CCCCCCCCCC(=O)CC(=O)N[C@H]1CCOC1=O [OdDHL, N-(3-oxododecanoyl)homoserine lactone]
effect on the heart rate (Male rats (Long Evans) [1]): profound bradycardia | effect on the mean arterial blood pressure (Male rats (Long Evans) [1]): substantially no change | blood flow, particularly in the mesenteric and hindquarters (Male rats (Long Evans) [1]; 10 mg per kg body weight i.v.): reduced | bradycardia (heart rate) after cardiac autonomic blockade (Male rats (Long Evans) [2]): not observed

CCCCCCCCC(=O)CC(=O)NC1CCOC1=O (stereo not drawn) [OuDHL, N-(3-oxoundecanoyl)homoserine lactone]
effect on the heart rate (Male rats (Long Evans) [1]): marked bradycardia | effect on the mean arterial blood pressure (Male rats (Long Evans) [1]): substantially no change

Reference: patent publication US6602905B1, “N-acyl homoserine lactones for the treatment of cardiac tachyarrhythmias, ischaemic heart disease or congestive heart failure” (The University of Nottingham, priority 1999, dated 2003)
